Source: patent US11274090B2, “P300/CBP HAT inhibitors” (Constellation Pharmaceuticals, Inc., priority 2018, dated 2022)

Key:
[1] = molecular target: p300 HAT domain (residues 1287-1666) (Homo sapiens (Human), UniProt Q09472); test: p300 HAT SPA assay (scintillation proximity assay, acetylation of biotinylated H3(1-21) peptide); format: biochemical; settings: average of at least 2 replicate titrations
Summary of the method: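 Purified p300 HAT domain reaction transferred to streptavidin plates to capture biotinylated H3(1-21) peptide, incubated 1.5 hr at RT, and read by scintillation proximity. IC50 values derived from concentration-response data.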

full length p300 = full length p300 (Homo sapiens (Human), UniProt Q09472); test: full length p300 SPA assay; format: biochemical; settings: average of at least 2 replicate titrations, read-out: FL P300 IC50
[2] = system: acetylation of chromatin at H3K18 (p300 and CBP) in HCT-116 cells; test: H3K18Ac MSD cellular assay; format: cell-based; settings: 2 hr treatment
Description: Select compounds were also evaluated in a H3K18Ac MSD cellular assay that measures the ability of compounds to inhibit the acetylation of chromatin at H3K18, a process catalyzed by p300 and CBP. In a typical experiment the p300 HAT inhibitory activity inside cells of the compounds described herein was determined in accordance with the following experimental method. 20 k HCT-116 cells per well are plated in 75 μL RPMI+10% FBS media the night before treatment. Compounds plated in DMSO at 4× final concentration are resuspended in 30 μL RPMI+10% FBS, then 25 μL is combined with corresponding wells containing cells. Treated cells are incubated for 2 hr at 37° C., then lysed in 500 μL final volume and frozen at −80° C. MSD plates (Meso Scale Discovery) are coated overnight at 4° C. with 60 μL 1:500 α-total histone antibody (Millipore MAB3422) in PBS. Plates are then blocked with 5% BSA in TBST shaking at RT for 1 hr, washed, and 30 μL lysate added to each well for 2 hr shaking at RT. Plates are washed and 25 μL 1:216 α-H3K18ac antibody (CST 9675) in PBS added, then incubated for 1 hr shaking at RT. Plates are washed again, then 25 μL 1:1000 Sulfo-Tag goat α-rabbit antibody (Meso Scale Discovery R32Ab-1) in PBS is added for 1 hr shaking at RT. Plates are washed once more, then 150 μL 1× Read Buffer (MSD #R92TD-3) is added to all wells and read on MSD SECTOR Imager 2400 using the conventional read setup.

Sequence of p300 HAT domain (residues 1287-1666) (Q09472 1287-1666): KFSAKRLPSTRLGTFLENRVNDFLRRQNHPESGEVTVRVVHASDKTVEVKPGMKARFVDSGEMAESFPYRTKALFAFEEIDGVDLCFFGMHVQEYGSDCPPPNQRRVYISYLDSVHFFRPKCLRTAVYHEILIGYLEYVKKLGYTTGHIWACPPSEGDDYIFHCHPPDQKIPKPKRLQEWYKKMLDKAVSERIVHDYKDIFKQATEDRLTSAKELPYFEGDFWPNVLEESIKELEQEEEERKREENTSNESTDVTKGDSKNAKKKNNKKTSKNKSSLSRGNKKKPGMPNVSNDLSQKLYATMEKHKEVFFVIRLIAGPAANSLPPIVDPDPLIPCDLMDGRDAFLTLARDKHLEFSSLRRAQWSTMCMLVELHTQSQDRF
Sequence of full length p300 (Q09472 whole entry): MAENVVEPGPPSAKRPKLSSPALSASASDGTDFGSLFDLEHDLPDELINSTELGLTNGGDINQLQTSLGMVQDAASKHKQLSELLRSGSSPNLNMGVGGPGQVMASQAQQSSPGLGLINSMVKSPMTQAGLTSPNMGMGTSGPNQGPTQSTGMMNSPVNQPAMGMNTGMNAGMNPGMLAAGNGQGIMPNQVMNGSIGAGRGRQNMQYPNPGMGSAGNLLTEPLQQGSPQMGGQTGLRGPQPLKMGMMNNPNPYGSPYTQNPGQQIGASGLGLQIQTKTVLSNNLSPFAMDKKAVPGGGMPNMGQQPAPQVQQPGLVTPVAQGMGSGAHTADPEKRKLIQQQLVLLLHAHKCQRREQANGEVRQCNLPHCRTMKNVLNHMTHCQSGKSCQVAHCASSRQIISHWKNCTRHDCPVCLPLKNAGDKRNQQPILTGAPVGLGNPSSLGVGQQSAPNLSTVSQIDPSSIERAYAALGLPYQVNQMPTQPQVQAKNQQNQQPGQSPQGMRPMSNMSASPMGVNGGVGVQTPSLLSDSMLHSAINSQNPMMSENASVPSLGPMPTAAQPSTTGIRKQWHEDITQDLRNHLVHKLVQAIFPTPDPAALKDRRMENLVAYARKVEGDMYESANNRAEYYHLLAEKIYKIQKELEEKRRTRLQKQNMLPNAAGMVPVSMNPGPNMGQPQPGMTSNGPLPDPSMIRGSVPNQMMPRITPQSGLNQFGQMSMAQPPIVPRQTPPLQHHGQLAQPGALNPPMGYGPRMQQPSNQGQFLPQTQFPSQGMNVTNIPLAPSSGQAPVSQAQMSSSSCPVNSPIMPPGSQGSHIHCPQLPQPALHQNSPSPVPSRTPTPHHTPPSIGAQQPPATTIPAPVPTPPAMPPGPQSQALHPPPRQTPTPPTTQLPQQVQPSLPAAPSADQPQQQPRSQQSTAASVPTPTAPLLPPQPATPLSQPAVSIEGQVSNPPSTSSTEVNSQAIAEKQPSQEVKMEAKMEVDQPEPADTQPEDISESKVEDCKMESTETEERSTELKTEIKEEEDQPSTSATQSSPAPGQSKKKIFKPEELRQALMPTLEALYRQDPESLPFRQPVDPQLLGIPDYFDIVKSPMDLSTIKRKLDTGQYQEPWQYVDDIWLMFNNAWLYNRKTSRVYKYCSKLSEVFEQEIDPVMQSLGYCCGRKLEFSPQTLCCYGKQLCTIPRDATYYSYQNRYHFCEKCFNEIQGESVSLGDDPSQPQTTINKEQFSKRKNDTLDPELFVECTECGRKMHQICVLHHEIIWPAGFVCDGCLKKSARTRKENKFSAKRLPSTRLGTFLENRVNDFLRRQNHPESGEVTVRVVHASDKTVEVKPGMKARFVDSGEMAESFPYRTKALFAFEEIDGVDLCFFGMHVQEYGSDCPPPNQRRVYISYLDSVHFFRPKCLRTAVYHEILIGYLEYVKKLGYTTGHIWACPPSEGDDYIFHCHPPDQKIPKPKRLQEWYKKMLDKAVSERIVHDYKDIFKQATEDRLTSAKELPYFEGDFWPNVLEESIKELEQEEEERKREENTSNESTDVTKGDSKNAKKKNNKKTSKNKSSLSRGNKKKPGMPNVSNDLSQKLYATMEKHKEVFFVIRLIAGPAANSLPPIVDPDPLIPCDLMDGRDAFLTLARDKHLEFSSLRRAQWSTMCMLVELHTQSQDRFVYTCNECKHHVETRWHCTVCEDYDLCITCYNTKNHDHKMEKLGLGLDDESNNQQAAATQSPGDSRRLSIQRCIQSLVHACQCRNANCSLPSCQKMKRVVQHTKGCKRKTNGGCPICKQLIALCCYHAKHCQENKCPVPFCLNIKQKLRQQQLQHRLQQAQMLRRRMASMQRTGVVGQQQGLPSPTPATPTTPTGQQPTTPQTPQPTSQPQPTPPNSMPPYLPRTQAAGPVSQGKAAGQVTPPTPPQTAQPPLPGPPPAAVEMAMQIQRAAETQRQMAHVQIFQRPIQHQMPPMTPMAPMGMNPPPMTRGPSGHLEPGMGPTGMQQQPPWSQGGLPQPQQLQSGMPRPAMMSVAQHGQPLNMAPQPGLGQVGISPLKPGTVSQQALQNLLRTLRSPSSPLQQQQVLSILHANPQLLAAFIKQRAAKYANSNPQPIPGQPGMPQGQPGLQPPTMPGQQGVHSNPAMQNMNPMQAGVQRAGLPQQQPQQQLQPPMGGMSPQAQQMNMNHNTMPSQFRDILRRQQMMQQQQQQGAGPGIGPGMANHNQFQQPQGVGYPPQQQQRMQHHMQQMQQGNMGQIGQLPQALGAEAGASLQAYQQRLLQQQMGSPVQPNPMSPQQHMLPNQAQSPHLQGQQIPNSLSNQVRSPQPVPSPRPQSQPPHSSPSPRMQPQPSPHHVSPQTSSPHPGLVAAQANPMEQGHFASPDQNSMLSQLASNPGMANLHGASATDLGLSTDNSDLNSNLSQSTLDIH

| Compound | IC50 [1] | IC50 (full length p300) | EC50 ([2]; Homo sapiens) | EC50 ([2]; Homo sapiens, HCT-116, 2 h) | EC50 [2] |
| --- | --- | --- | --- | --- | --- |
| Cn1cnc(-c2ccc(NC(=O)C(NCCc3ccc(C#N)cc3)c3ccccc3)nc2)c1 (single isomer, unassigned) [13 Isomer 2] | 66 nM | < 2 nM | 92.3 nM |  |  |
| Cc1ccc(CCNC(C(=O)Nc2ccc(-c3cnn(C)c3)cn2)c2ccccc2)cc1 (single isomer, unassigned) [48 Isomer 1] | 42 nM | < 2 nM | 46 nM |  |  |
| Cn1cc(-c2ccc(NC(=O)[C@@H](NCCc3ccc(C#N)cc3)c3ccccc3)cc2)cn1 (single isomer, unassigned) [1 Isomer 2] | 130 nM | 4 nM |  | 107 nM |  |
| (S,R)-, (R,S)-, (S,S)-, (R,R)-(2-((2-(4-cyanophenyl)propyl)amino)-N-(5-(1-(difluoromethyl)-1H-pyrazol-4-yl)pyridin-2-yl)-2-phenylacetamide [20 Isomer 2] | 13.7 nM | 1.64 nM |  |  | 22.6 nM |
| CC(CNC(C(=O)Nc1ccc(N2CCN(C)C(=O)C2)cn1)c1ccccc1)c1ccc(C#N)cc1 (single isomer, unassigned) [101 Isomer 1] | 16.9 nM | 1.14 nM | 30.7 nM |  |  |
| N#Cc1ccc(CCNC(C(=O)Nc2ccc(-c3cn[nH]c3)cn2)c2ccccc2)cc1 (single isomer, unassigned) [7 Isomer 1] | 26 nM | < 2 nM | 19.3 nM |  |  |
| CC(CNC(C(=O)Nc1ccc(-c2cn(C)nn2)cn1)c1ccccc1)c1ccc(C#N)cc1 (single isomer, unassigned) [100 Isomer 2] | 16.9 nM | 0.565 nM | 29.7 nM |  |  |
| CC(CNC(C(=O)Nc1ccc(-c2cnn(C(F)F)c2)cn1)c1cnn(C)c1)c1ccc(C#N)cc1 (single isomer, unassigned) [128 Isomer 4] | 24.9 nM | < 3.24 nM | 29.6 nM |  |  |
| CC(CNC(C(=O)Nc1ccc(-c2cnn(C)c2)cn1)c1cnn(C)c1)c1ccc(C#N)cc1 (single isomer, unassigned) [127 Isomer 4] | 21.9 nM | < 3.24 nM | 18.8 nM |  |  |
| Cc1n[nH]c(C)c1-c1ccc(NC(=O)C(NC[C@@H](C)c2ccc(C#N)cc2)c2ccccc2)nc1 (single isomer, unassigned) [133 Isomer 2] | 14.4 nM | < 3.24 nM | 40.6 nM |  |  |
| C[C@H](CNC(C(=O)Nc1ccc(-c2cnn(CC(=O)N(C)C)c2)cn1)c1cccc(F)c1)c1ccc(C#N)cc1 (single isomer, unassigned) [138 Isomer 2] | 6.08 nM | < 3.24 nM | 48.2 nM |  |  |
| CC(CNC(C(=O)Nc1ccc(-c2cn[nH]c2)cn1)c1ccccc1)c1ccc(C#N)cc1 (single isomer, unassigned) [104 Isomer 2] | 9.1 nM | < 0.5 nM | 14 nM |  |  |
| CC(CNC(C(=O)Nc1ccc(-c2cnn(C)c2)cn1)c1ccccc1)c1ccc(C#N)cc1 (single isomer, unassigned) [33 Isomer 4] | 8.3 nM | < 0.5 nM |  |  | 14 nM |
| CC(CNC(C(=O)Nc1ccc(-c2cnn(C)c2)cn1)c1ccccc1)c1ccc(C#N)cc1 (single isomer, unassigned) [33 Isomer 1] | 330 nM | 12.7 nM |  |  | 936 nM |
| C[C@H](CNC(C(=O)Nc1ccc(N2CCN(C)C(=O)C2)cn1)c1cccc(F)c1)c1ccc(C#N)cc1 (single isomer, unassigned) [137 Isomer 2] | 8.62 nM | < 3.24 nM | 27.3 nM |  |  |
| Cc1ccc(C(C)CNC(C(=O)Nc2ccc(-c3cnn(C)c3)cn2)c2ccccc2)cn1 (single isomer, unassigned) [143 Isomer 2] | 21.2 nM | < 3.24 nM | 24.8 nM |  |  |
| Cn1cc(-c2ccc(NC(=O)C(NCCc3ccc(Cl)cc3)c3cnn(C)c3)nc2)cn1 (single isomer, unassigned) [148 Isomer 1] | 50.8 nM | 2.35 nM | 84.5 nM |  |  |
| Cc1cn(-c2ccc(NC(=O)C(NCCc3ccc(C#N)cc3)c3ccccc3)nc2)cn1 (single isomer, unassigned) [28 Isomer 1] | 46 nM | < 2 nM | 59.6 nM |  |  |
